Measurements: patent US20220397566A1, “GAMMA-SECRETASE STABILIZING COMPOUND SCREENING ASSAY” (VIB VZW, priority 2019, published 2022)
Like-named read-outs stand apart in the source and are kept apart here.

Legend:
Format in all cases: cell-based, mouse
g-secretase subunits = molecular target: T1, g-secretase subunits (Homo sapiens, UniProt P49768); experiment: Expression of g-secretase subunits (Western blot); settings: 1 μM DAPT; data not shown
T1 construct: expressed in transfected cells
Description: First, in the PSEN1 KO mouse embryonic fibroblasts (MEFs) rescued with EGFP-PSEN1 (see Example 1) the expression of the g-secretase subunits was tested and found not affected by administering any of the 12 compounds, including DAPT that was used as positive control (data not shown).
(§1) Protein concentrations were determined by the Bio-Rad DC protein assay (Bio-Rad). Samples were separated by SDS-PAGE (4-12% Bis-Tris NuPAGE gels in MES running buffer (ThermoFisher Scientific) and transferred onto nitrocellulose membranes (ThermoFisher Scientific). After blocking in 5% non-fat milk, membranes were incubated with primary antibody (4° C., overnight) followed by washing and incubation with horseradish peroxidase (HRP)-conjugated secondary antibodies (1 h, room temperature). After final washing, immunodetection was done using enhanced chemiluminescence (Western Lightning-Plus ECL, PerkinElmer), and immunoreactive protein bands were digitally captured and quantified on a Fuji MiniLAS 3000 imager (Fuji, Dusseldorf, Germany) using Aida Image Analyzer software (Raytest, Germany). Data are represented as mean±SEM of at least three independent experiments.

FAD-PSEN1 mutants = experiment: Late endosomal localisation of FAD-PSEN1 mutants in PSEN1 KO MEFs; settings: DAPT 1 μM 16 h
Description: FIG. 6. Familial Alzheimer's disease (FAD) mutations in PSEN1 differently affect g-secretase localization in late endosomes. Ratio of GFP intensity in LAMP1 endosomes over total GFP signal in PSEN1 KO MEFs stably rescued with GFP-PSEN1 wild-type (Wt) or the indicated FAD-PSEN1 mutants and treated with DMSO or DAPT (1 μM) 16 h.
As these mutations were reported to have an early onset and high thermo-instability (reflecting lowest processivity), we extended this experiment to other mutations reported in Szaruga et al (2017 Cell 170). In line with the above, the PSEN1-P88L mutation translocated PSEN1/g-secretase to late endosomes as well. […] These mutations have a higher onset and affect the Ab processivity less as compared to L166P, G384A and P88L mutants.

transferrin receptor = experiment: Cell surface biotinylation internalization assay, transferrin receptor; settings: 16 h time point, DAPT 1 μM
Description: All reagents, except otherwise stated, were kept on ice. Cells (450.000 cells for 1 h kinetic and 300.000 cells for 16 h) were plated on 6-cm dishes. 48 h after plating, cells were placed on ice, washed in PBS (pH 8) and next incubated in PBS (pH 8) supplemented with 0.25 mg/ml sulfo-NHS-SS-Biotin (Pierce) (10 min at 4° C.). Excess of biotin was washed out with PBS and cells were incubated in quench buffer (0.5% BSA, 100 mM Glycine in PBS) for 15 min at 4° C. Cells were then washed with PBS and incubated at 37° C. in complete pre-warmed medium (with or without DAPT 1 μM) for the appropriate time or kept at 4° C. as a control. Endocytosis was quickly stopped by placing the dishes back on ice and washing the cells with ice-cold PBS. Remaining biotin at the cell surface was cleaved off by incubating the cells twice in PBS containing 100 mM 2-sodium-2-mercaptoethanesulfonate (Sigma) as a reducing agent (15 min at 4° C.). […] Total protein was measured and biotinylated proteins were pulled down from equal amounts of extracts using streptavidin Sepharose beads (Pierce) (4° C., overnight on a rotation wheel). […] To evaluate the internalized pool for each protein to total cell surface, the (R37-R0)/NR*100 ratio for each time point were quantified. For the 16 h time point, the R37/NR*100 were quantified for each condition. […]

[1] = molecular target: T2, PSEN1/g-secretase complex (Homo sapiens, UniProt P49768); experiment: Relocation of GFP-PSEN1/g-secretase to LAMP1-positive late endosomes (confocal immunofluorescence)
T2 construct: expressed in transfected cells

PSEN1/g-secretase = PSEN1/g-secretase (Homo sapiens, UniProt P49768); experiment: Ab production in MEFs transfected with C99-3×FLAG (Western blot 82E1); parameters: expressed in transfected cells; settings: 16 hours
Description: FIG. 5. Inhibitor dose-effect on Ab production. PSEN1 KO MEFs stably rescued with GFP-PSEN1 and transfected with C99-3×FLAG (6 h) were treated with different concentrations of (A, B) DAPT, or (C) L-685-458 as indicated. After 16 h, condition media and cell lysates were analyzed by Western blot using 82E1 monoclonal antibody to detect AP. Representative blot is shown in […] for DAPT treatment and quantification is shown in (B): mean+SEM, n=3 independent experiments. (C) PSEN1 KO MEFs. Quantification for L-685-458 is shown in (C), n=1.
Based on these new data, it is crucial to compare the sensitivity to g-secretase inhibitors of the g-secretase complex located in the late endosomes (producing intracellular Ab) and the broadly localised g-secretase complex (producing extracellular Ab). We therefore compared the dose-dependencies of translocated PSEN1/g-secretase with catalytic inhibition by DAPT. MEFs were transfected with APP-C99-3×FLAG for 6 hours and treated with different doses of DAPT. After 16 hours, conditioned media and cell lysates were collected and analysed by Western blotting for total secreted and intracellular Ab, respectively. This resulted for DAPT in a lower IC50 for secreted Ab inhibition (FIG. 5A-B).
as §1

- steady state of PSEN1 or PSEN2 protein levels (g-secretase subunits): no measurable effect
- relocation of EGFP-PSEN1 to LAMP1-positive organelles ([1]; single PSEN1 KO MEFs stably transduced with EGFP-PSEN1, data not shown): Identical observations
- IC50 (PSEN1/g-secretase; cell lysates, read-out: IC50 intracellular Ab): 21 nM
- IC50 (PSEN1/g-secretase; conditioned media, read-out: IC50 for secreted Ab inhibition): 16 nM
Compound: C[C@H](NC(=O)Cc1cc(F)cc(F)c1)C(=O)N[C@H](C(=O)OC(C)(C)C)c1ccccc1 [DAPT, N—[N-(3,5-difluorophenacetyl)-L-alanyl]-S-phenylglycine t-butyl ester]
- late endosomal localization of mutant PSEN1 (FAD-PSEN1 mutants; L166P, G384A, P88L mutants): did not further increase late endosomal localization
- shift of PSEN1/g-secretase to late endosomes (FAD-PSEN1 mutants; Y115H and E280A mutants): did not shift PSEN1/g-secretase to late endosomes, unless treated with DAPT
- biotinylated transferrin receptor pulled down (transferrin receptor): no differences were found
- co-distribution of EGFP-PSEN1 with anti-LBPA immunoreactivity (late endosomes) ([1]; PSEN1 KO MEFs rescued with GFP-PSEN1, 1 μM, 16 h): even more strongly co-distributed with anti-LBPA immunoreactivity
- co-accumulation of EGFP-PSEN1 and NCT-SNAP in LAMP1-positive organelles ([1]; triple KO MEFs rescued with EGFP-PSEN1 and NCT-SNAP, 1 μM, 16 h): co-accumulate in LAMP1-positive organelles
